From ChEMBL document CHEMBL1221343, “Caelestines A-D, brominated quinolinecarboxylic acids from the Australian ascidian Aplidium caelestis” (J Nat Prod, 2010)
Calls of active or inactive are those of the source. The rule behind the calls is not given here.

Legend:
MCF7 = assay: Cytotoxicity against human MCF7 cells at 100 uM; type: functional
MM96L = assay: Cytotoxicity against human MM96L cells at 100 uM; type: functional
[1] = Cytotoxicity against human NFF cells at 100 uM; type: cell-based; conditions: read-out: INH
Staphylococcus aureus [2] = assay: Antimicrobial activity against multidrug-resistant Staphylococcus aureus ATCC 43300 at 0.1 to 10 mM after 20 hrs by CLSI broth microdilution method; type: functional, organism-based
Staphylococcus aureus [3] = assay: Antimicrobial activity against methicillin-sensitive Staphylococcus aureus ATCC 25923 at 0.1 to 10 mM after 20 hrs by CLSI broth microdilution method; type: functional, organism-based
Escherichia coli = assay: Antimicrobial activity against Escherichia coli ATCC 25922 at 0.1 to 10 mM after 20 hrs by CLSI broth microdilution method; type: functional, organism-based
Enterococcus faecalis = assay: Antimicrobial activity against Enterococcus faecalis ATCC 19433 at 0.1 to 10 mM after 20 hrs by CLSI broth microdilution method; type: functional, organism-based
Pseudomonas aeruginosa = assay: Antimicrobial activity against Pseudomonas aeruginosa NCTC 10662 at 0.1 to 10 mM after 20 hrs by CLSI broth microdilution method; type: functional, organism-based
Candida albicans = assay: Antimicrobial activity against Candida albicans ATCC 10231 at 0.1 to 10 mM after 20 hrs by CLSI broth microdilution method; type: functional, organism-based

Compound	inhibition at 100 µM (MCF7) [%]	inhibition at 100 µM (MM96L) [%]	cytotoxicity at 100 µM [1] [%]	Activity (Staphylococcus aureus [2])	Activity (Staphylococcus aureus [3])	Activity (Escherichia coli)	Activity (Enterococcus faecalis)	Activity (Pseudomonas aeruginosa)	Activity (Candida albicans)
COc1cc(Br)cc2c(=O)cc(C(=O)O)[nH]c12	40	54	58	inactive	inactive	inactive	inactive	inactive	inactive
COc1c(Br)c(Br)cc2c(=O)cc(C(=O)O)[nH]c12	38	52	68	inactive	inactive	inactive	inactive	inactive	inactive
O=C(O)c1cc(O)c2ccc(Br)cc2n1	39	62	57	inactive	inactive	inactive	inactive	inactive	inactive
O=C(O)c1cc(=O)c2cc(Br)c(Br)cc2[nH]1	49	69	66	inactive	inactive	inactive	inactive	inactive	inactive
